In patent publication EP4768499A1, “MACROCYCLIC PEPTIDE COMPOUND HAVING CELL MEMBRANE PERMEABILITY AND METABOLIC STABILITY, AND LIBRARY CONTAINING SAME” (Chugai Seiyaku Kabushiki Kaisha, priority 2023, dated 2025):
Starred links: 1 amine or outer side, 2 acyl side, 3 side chain; linkers in the order of their positions; H or OH if unused. Positions of bridges follow the written chain, without caps; N, C: chain ends. Non-standard residues stand in square brackets, D forms with d. Residues, ends and D or L forms follow the SMILES beside them. *: point of attachment. NMedβ3hAla = C[C@H](CC(=O)[*:2])N(C)[*:1]; NMeF = CN[C@@H](Cc1ccccc1)C(=O)O; NMeGABA = CN(CCCC(=O)[*:2])[*:1]; NMeI = CC[C@H](C)[C@H](NC)C(=O)O; NMeβAla = CN(CCC(=O)[*:2])[*:1]; NMeD = CN[C@@H](CC(=O)O)C(=O)O; NMeL = CN[C@@H](CC(C)C)C(=O)O; NMeV = CN[C@H](C(=O)O)C(C)C; d(β3hA) = C[C@@H](N)CC(=O)O; NMeAbu = CC[C@H](NC)C(=O)O; NMeA = CN[C@@H](C)C(=O)O; Piperidide = C1CCN(*)CC1; Abu = CC[C@H](N)C(=O)O; Sar = CNCC(=O)O; tBu = CC(C)(C)*

Assays:
[1] = Metabolic stability test: liver microsomal stability assay; format: in vitro ADME, mouse; details: mouse liver microsomes 0.5 mg protein/mL, compound 1 µM; for microsomal CLint at 1 µM: male, pH 7.4, presence of NADPH, read-out: Mouse Hepatic Microsome CLh,int NADPH(+); for Mouse Hepatic Microsome CLh,int NADPH(-): absence of NADPH
[2] = Membrane permeability test using Caco-2 cells with preincubation; format: in vitro ADME; details: Caco-2; preincubation 20 to 24 hours; Apical FaSSIF/HBSS pH 6.0, Basal HBSS 4% BSA pH 7.4; 180 minutes; read-out: Caco2 Papp
Caco-2 cells = assay: as above; format: in vitro ADME; details: Caco-2 cells, preincubation 20 to 24 hours; apical FaSSIF/HBSS 1% DMSO pH 6.0, basal HBSS 4% BSA pH 7.4; basal sample at 180 minutes

microsomal CLint at 1 µM [1]	Mouse Hepatic Microsome CLh,int NADPH(-) [1]	Papp A→B [2]	Caco2 Papp (10^-6 cm/sec) (Caco-2 cells)	Compound
44.5 µL/min/mg	37.8 µL/min/mg Protein	0.57 ×10⁻⁶ cm/s	0.57 10^-6 cm/sec	CC[C@H](C)[C@@H]1NC(=O)[C@H](C)NC(=O)[C@H](CC(C)C)N(C)C(=O)[C@H](COC(C)(C)C)NC(=O)[C@H](CC(C)C)N(C)C(=O)[C@@H]2CCCN2C(=O)[C@H](Cc2ccccc2)NC(=O)[C@H]([C@@H](C)CC)N(C)C(=O)[C@H](CC(C)C)N(C)C(=O)CCCN(C)C(=O)C[C@@H](C(=O)N2CCCCC2)NC(=O)[C@H](Cc2ccccc2)N(C)C(=O)[C@H](CC)N(C)C1=O [pd098] ([NMeGABA][NMeL][NMeI]FP[NMeL]S(tBu)[NMeL]AI[NMeAbu][NMeF]D-Piperidide; lactam N-13)
35.5 µL/min/mg	35.7 µL/min/mg Protein	0.05 ×10⁻⁶ cm/s	0.05 10^-6 cm/sec	CC[C@H](C)[C@@H]1NC(=O)[C@H](C)N(C)C(=O)[C@H]([C@@H](C)O)NC(=O)[C@H](CC(C)C)N(C)C(=O)[C@H](COC(C)(C)C)NC(=O)[C@H](Cc2ccccc2)N(C)C(=O)[C@H]([C@@H](C)CC)NC(=O)CNC(=O)[C@H](Cc2ccccc2)N(C)C(=O)[C@H](CC(C)C)N(C)C(=O)CCCN(C)C(=O)C[C@@H](C)N(C)C(=O)[C@H](CC(C)C)NC1=O [pd145] (cyclo(GI[NMeF]S(tBu)[NMeL]T[NMeA]IL[NMedβ3hAla][NMeGABA][NMeL][NMeF]))
11.4 µL/min/mg	7.3 µL/min/mg Protein	0.04 ×10⁻⁶ cm/s	0.04 10^-6 cm/sec	CC[C@@H]1NC(=O)[C@H](CC(C)C)N(C)C(=O)[C@H](C)NC(=O)[C@@H]2CCCN2C(=O)[C@H](CC)N(C)C(=O)[C@H](CC(C)C)N(C)C(=O)CN(C)C(=O)[C@H](Cc2ccccc2)N(C)C(=O)[C@H]([C@@H](C)CC)NC(=O)CCN(C)C(=O)[C@H](C(C)C)N(C)C(=O)[C@H](COC(C)(C)C)NC(=O)[C@H](CC(C)C)N(C)C(=O)C[C@@H](C(=O)N2CCCCC2)N(C)C1=O [pd083] ([NMeL]S(tBu)[NMeV][NMeβAla]I[NMeF][Sar][NMeL][NMeAbu]PA[NMeL][Abu][NMeD]-Piperidide; lactam N-14)
15 µL/min/mg	14.6 µL/min/mg Protein	0.03 ×10⁻⁶ cm/s	0.03 10^-6 cm/sec	CC[C@@H]1NC(=O)[C@H](Cc2ccccc2)N(C)C(=O)[C@@H]2CCCN2C(=O)[C@H](CC(C)C)N(C)C(=O)[C@H](CC)NC(=O)[C@H](C(C)C)NC(=O)[C@H](CC(C)C)N(C)C(=O)[C@H]([C@@H](C)O)NC(=O)[C@H](Cc2ccccc2)N(C)C(=O)CN(C)C(=O)C[C@@H](C)N(C)C(=O)[C@H](C(C)C)NC(=O)[C@H](CC)N(C)C(=O)[C@H](C)N(C)C1=O [pd070] (cyclo([Abu][NMeA][NMeAbu]V[NMedβ3hAla][Sar][NMeF]T[NMeL]V[Abu][NMeL]P[NMeF]))
17.8 µL/min/mg	13.5 µL/min/mg Protein	2.18 ×10⁻⁶ cm/s	2.18 10^-6 cm/sec	CC[C@H]1C(=O)N(C)[C@@H](C)C(=O)N(C)[C@@H](C(C)C)C(=O)N[C@H](C)CC(=O)N[C@H](C(C)C)C(=O)N(C)[C@@H](CC(C)C)C(=O)N[C@@H](CC(C)C)C(=O)N(C)[C@@H](C(C)C)C(=O)N(C)[C@@H](CC(C)C)C(=O)N(C)CC(=O)N[C@@H]([C@@H](C)O)C(=O)N(C)[C@@H](Cc2ccccc2)C(=O)N[C@@H](COC(C)(C)C)C(=O)N1C [pd131] (cyclo(L[NMeV][NMeL][Sar]T[NMeF]S(tBu)[NMeAbu][NMeA][NMeV][d(β3hA)][dV][NMeL]))
